By CC50 is commonly meant the concentration at which the toxic effect on the cells reaches its halfway point. Usually Kd stands for the concentration at which binding is half-saturated.

Activity calls are given as the source filed them. The calls are words filed in the database; no cut-off is given here.

These results are taken from ChEMBL document CHEMBL5331068, “Briarane-type diterpenoids, the inhibitors of osteoclast formation by interrupting Keap1-Nrf2 interaction and activating Nrf2 pathway” (Eur J Med Chem, 2023).

Data set [1] can be described thus: Cytotoxicity against C57BL/6 mouse BMDM cells incubated for 48 hrs by MTT assay. The data set is classed as toxicity, cell-based. The note with it: BMDM cells (bone marrow-derived macrophages).
The subject of data set [2] is BMDM. Briefly: Anti-osteoclastogenesis activity in RANKL-induced C57BL/6 mouse BMDM cells assessed as elimination of TRAP-positive multinucleated osteoclast incubated for 7 days in the presence of M-CSF by TRAP-staining based microscopic analysis. The format is functional, cell-based. The note with it: dose 1-10 µM, time 7.0 day.
The subject of data set [3] is BMDM. Briefly: Anti-osteoclastogenesis activity in RANKL-induced C57BL/6 mouse BMDM cells assessed as inhibition of c-Fos protein level at 5 to 10 uM in the presence of M-CSF by Western blot analysis. Conditions: dose 5-10 µM. The format is functional, cell-based. For orientation: Immunoblotting shows a protein as a band on a membrane.
Data set [4] concerns BMDM. Briefly: Anti-osteoclastogenesis activity in RANKL-induced C57BL/6 mouse BMDM cells assessed as decrease in bone resorption pit number incubated for 10 days in the presence of M-CSF by inverted microscopic analysis. The data set is classed as functional, cell-based. The note with it: dose 1-10 µM, time 10.0 day.
The test system of data set [5] is BMDM. Briefly: Anti-osteoclastogenesis activity in RANKL-induced C57BL/6 mouse BMDM cells assessed as decrease in number of F-actin ring formation at 1 to 10 uM incubated for 7 days in the presence of M-CSF by DAPI staining based fluorescence microscopic analysis. The format is functional, cell-based. The note with it: dose 1-10 µM, time 7.0 day.
Data set [6] has as its system BMDM. Put plainly: Anti-osteoclastogenesis activity in RANKL-induced C57BL/6 mouse BMDM cells assessed as inhibition of bone resorption by measuring downregulation of Cathepsin K expression at 5 to 10 uM in the presence of M-CSF by Western blot analysis. The format is functional, cell-based. Conditions: dose 5-10 µM.
In data set [7] the test system is BMDM. Briefly: Anti-osteoclastogenesis activity in C57BL/6 mouse BMDM cells assessed as reduction in RANKL-induced ROS level at 5 to 10 uM incubated for 6 hrs by DCF-DA staining based fluorescence analysis. The format is functional, cell-based. Conditions: dose 5-10 µM.
The subject of data set [8] is BMDM. Put plainly: Anti-osteoclastogenesis activity in RANKL-induced C57BL/6 mouse BMDM cells assessed as increase in nuclear Nrf2 level at 5 to 10 uM in the presence of M-CSF by Western blot analysis. The data set is classed as functional, cell-based. The note with it: dose 5-10 µM.
Data set [9] concerns BMDM. Put plainly: Anti-osteoclastogenesis activity in RANKL-induced C57BL/6 mouse BMDM cells assessed as increase in NQO-1 expression at 5 to 10 uM in the presence of M-CSF by Western blot analysis. Conditions: dose 5-10 µM. The data set is classed as functional, cell-based.
Data set [10] addresses T1, Nuclear factor erythroid 2-related factor 2 (Mus musculus) (UniProt Q60795).
T1 sequence (whole entry): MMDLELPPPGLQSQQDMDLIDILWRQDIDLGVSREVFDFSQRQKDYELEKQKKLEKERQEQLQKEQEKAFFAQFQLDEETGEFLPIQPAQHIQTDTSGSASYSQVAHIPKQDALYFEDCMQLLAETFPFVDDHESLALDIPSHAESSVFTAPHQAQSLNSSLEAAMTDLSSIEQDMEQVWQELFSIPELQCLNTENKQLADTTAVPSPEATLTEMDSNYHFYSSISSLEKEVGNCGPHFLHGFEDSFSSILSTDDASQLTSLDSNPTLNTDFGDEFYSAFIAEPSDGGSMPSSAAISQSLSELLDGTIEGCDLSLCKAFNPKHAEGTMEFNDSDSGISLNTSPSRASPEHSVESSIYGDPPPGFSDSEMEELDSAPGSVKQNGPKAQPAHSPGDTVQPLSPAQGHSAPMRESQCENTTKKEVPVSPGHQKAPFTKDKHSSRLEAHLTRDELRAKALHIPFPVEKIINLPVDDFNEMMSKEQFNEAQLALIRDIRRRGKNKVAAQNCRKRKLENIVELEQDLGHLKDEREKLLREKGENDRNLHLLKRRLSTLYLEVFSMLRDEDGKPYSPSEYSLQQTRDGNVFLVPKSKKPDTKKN
Put plainly: Stabilization of Nrf2 in mouse RAW264.7 cells assessed as increase in Nrf2 protein level preincubated with compound for 6 hrs followed by CHX addition and measured after 45 mins by Western blot analysis. The data set is classed as cell-based. The note with it: time 405.0 min.

Data set [11] deals with RAW264.7. Briefly: Anti-osteoclastogenesis activity in RANKL-induced mouse RAW264.7 cells transfected with Nrf2 siRNA assessed as increase in NQO-1 expression level incubated for 3 days by Western blot analysis. The format is functional, cell-based. The note with it: time 3.0 day.
Data set [12] concerns RAW264.7. Put plainly: Anti-osteoclastogenesis activity in RANKL-induced mouse RAW264.7 cells transfected with Nrf2 siRNA assessed as increase in c-fos expression level incubated for 3 days by Western blot analysis. The data set is classed as functional, cell-based. Conditions: time 3.0 day.
The subject of data set [13] is RAW264.7. Briefly: Anti-osteoclastogenesis activity in RANKL-induced mouse RAW264.7 cells transfected with Nrf2 siRNA assessed as increase in NFATc1 expression level incubated for 3 days by Western blot analysis. The data set is classed as functional, cell-based. Conditions: time 3.0 day.
Data set [14] deals with BMDM. Put plainly: Anti-osteoclastogenesis activity in C57BL/6 mouse BMDM cells transfected with Nrf2 siRNA assessed as inhibition of RANKL-induced osteoclastogenesis at 10 uM incubated for 5 days in the presence of M-CSF by TRAP-staining based microscopic analysis. The format is functional, cell-based. The note with it: time 5.0 day.
Data set [15] addresses T2, MAP kinase p38 (Mus musculus) (UniProt P47811+O08911+Q9WUI1+Q9Z1B7). Put plainly: Inhibition of RANKL-induced p38 MAPK phosphorylation in C57BL/6 mouse BMDM cells incubated for 60 mins by Western blot analysis. The format is cell-based.
Data set [16] deals with T2, MAP kinase p38 (Mus musculus). Briefly: Inhibition of RANKL-induced p38 MAPK phosphorylation in C57BL/6 mouse BMDM cells transfected with Nrf2 siRNA at 10 uM incubated for 60 mins by Western blot analysis. The format is cell-based.
Data set [17] addresses Transcription factor p65 (Mus musculus) (UniProt Q04207). Put plainly: Inhibition of RANKL-induced p65 NF-kappaB phosphorylation in C57BL/6 mouse BMDM cells transfected with Nrf2 siRNA at 10 uM incubated for 60 mins by Western blot analysis. The data set is classed as cell-based.
Data set [18] has as its target T3, Kelch-like ECH-associated protein 1 (Homo sapiens, UniProt Q14145). Briefly: Binding affinity to recombinant human Keap1 assessed as equilibrium dissociation constant by SPR analysis. (In general: Surface plasmon resonance follows binding to a sensor surface in real time, without labels.)
Data set [19] has as its target Kelch-like ECH-associated protein 1 (Mus musculus) (UniProt Q9Z2X8). Briefly: Binding affinity to Keap1 in mouse RAW264.7 cells assessed as thermal stability at 20 uM preincubated with compound for 1 hrs followed by heating at 37 to 65 degreeC for 3 mins by CETSA. The format is cell-based. The note with it: time 63.0 min.
Data set [20] concerns the target T3, Kelch-like ECH-associated protein 1. Briefly: Binding affinity to recombinant human Keap1 by SPR analysis.
For data set [21], the system named is Danio rerio. Briefly: Anti osteoporosis activity in prednisone induced AB Zebrafish model of osteopenia assessed as increase in bone mineralization at 5 to 10 uM administered after 3 days post fertilization and measured after 6 days by Alizarin red staining based analysis. The format is functional, organism-based. The note with it: dose 5-10 µM, time 6.0 day.

T3 sequence (Q14145 whole entry): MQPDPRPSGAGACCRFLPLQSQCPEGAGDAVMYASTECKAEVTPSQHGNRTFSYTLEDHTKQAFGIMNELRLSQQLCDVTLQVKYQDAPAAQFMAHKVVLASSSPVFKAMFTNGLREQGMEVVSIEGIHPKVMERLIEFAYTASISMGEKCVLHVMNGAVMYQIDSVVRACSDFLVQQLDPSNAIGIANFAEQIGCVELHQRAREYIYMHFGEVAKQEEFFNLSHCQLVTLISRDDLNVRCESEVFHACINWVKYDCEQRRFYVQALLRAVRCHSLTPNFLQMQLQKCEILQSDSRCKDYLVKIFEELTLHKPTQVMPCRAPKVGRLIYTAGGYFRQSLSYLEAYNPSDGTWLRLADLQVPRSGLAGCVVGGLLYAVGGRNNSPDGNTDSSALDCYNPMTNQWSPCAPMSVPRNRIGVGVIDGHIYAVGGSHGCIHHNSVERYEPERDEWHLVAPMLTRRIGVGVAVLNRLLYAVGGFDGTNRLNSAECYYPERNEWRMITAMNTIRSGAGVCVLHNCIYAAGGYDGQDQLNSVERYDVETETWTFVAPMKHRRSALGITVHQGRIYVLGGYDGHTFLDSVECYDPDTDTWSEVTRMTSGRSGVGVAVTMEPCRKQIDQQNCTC
Chain of Kelch-like ECH-associated protein 1 (Mus musculus) (Q9Z2X8 whole entry): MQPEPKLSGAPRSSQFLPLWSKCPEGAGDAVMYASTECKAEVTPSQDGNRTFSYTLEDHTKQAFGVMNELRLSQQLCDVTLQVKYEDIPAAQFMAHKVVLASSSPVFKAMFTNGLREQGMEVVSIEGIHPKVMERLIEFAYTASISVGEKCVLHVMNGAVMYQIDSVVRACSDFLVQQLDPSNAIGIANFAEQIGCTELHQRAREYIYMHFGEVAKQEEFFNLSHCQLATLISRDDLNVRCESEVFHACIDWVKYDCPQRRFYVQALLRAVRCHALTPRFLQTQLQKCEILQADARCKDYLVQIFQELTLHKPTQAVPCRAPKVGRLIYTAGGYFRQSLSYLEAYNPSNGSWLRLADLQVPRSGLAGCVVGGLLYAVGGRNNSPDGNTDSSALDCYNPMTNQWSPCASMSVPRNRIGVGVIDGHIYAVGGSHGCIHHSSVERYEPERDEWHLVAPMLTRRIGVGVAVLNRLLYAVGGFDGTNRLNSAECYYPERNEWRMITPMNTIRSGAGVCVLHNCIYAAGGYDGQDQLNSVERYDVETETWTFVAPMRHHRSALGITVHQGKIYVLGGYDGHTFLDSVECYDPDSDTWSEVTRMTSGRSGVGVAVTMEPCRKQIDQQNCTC
Chain of Transcription factor p65 (Mus musculus) (Q04207 whole entry): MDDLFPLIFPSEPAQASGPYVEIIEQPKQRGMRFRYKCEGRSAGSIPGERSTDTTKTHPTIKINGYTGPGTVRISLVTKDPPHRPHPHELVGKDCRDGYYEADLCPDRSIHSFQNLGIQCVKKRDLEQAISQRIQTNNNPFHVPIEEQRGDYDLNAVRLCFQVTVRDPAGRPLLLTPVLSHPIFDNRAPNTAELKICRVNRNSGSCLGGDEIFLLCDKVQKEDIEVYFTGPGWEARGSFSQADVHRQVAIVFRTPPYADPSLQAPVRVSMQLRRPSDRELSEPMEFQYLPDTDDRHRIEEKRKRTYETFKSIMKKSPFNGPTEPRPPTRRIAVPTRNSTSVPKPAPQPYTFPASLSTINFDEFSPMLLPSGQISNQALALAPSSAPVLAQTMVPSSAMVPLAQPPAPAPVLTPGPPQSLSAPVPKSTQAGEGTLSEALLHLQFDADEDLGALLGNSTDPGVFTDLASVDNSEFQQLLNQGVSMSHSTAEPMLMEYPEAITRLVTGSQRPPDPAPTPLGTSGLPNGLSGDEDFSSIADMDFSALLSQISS

In data set [1], `C=C1[C@H]2O[C@]3([C@@H](C)C(=O)O[C@H]3[C@H]1Cl)[C@@H](OC(C)=O)[C@H]1[C@]3(CC[C@H](OC(C)=O)[C@]1(C)[C@@H](OC(C)=O)[C@@H]2OC(C)=O)CO3` yielded a CC50 at 48 h of over 50 µM. The Activity result in data set [2] and in [4] was “Dose-Dependent Effect” throughout. For the same compound, the result in [3], in data set [5], in data set [6], in data set [7], in data set [8] and in data set [9] was Active. For the same compound, the result in [10], in data set [19], in data set [20] and in data set [21] was Active. The result in data set [11], in [12], in data set [13] and in data set [14] was inactive. Moreover, the inhibition entry in data set [15] was “Active”. The inhibition entry in data set [16] and in data set [17] was “inactive” in each case. Besides, the Kd in [18] came out at 6.4 µM.
